Laboratory results taken from patent US6355799B1, “Substituted benzene compounds, process for their preparation, and herbicidal and defoliant compositions containing them” (ISK Americas Incorporated, priority 1997, dated 2002).
Read-outs that look alike come from different tables or passages of the source.

Tests used:
Assay type in all cases: in vivo
[1] = test system: velvetleaf (Abutilon theophrasti, ABUTH); assay: Pre-emerge test, greenhouse herbicide activity screening; conditions: for pest or weed control at 63 g/ha / pest or weed control at 250 g/ha: Abutilon theophrasti, pre-emergence, 336 h, read-out: Pre-emerge Herbicidal Activity ABUTH; for Pre-emerge Herbicidal Activity ABUTH (phytotoxicity rating, scale 0-100): rated 14 days after application, 0 = no damage, 100 = complete death
Summary of the method: (§1)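 Sandy loam pots; pre-emerge: sown 1 d pre-spray, surface-watered after, then bottom-watered. Post-emerge: sown 8–21 d before, 2–3 leaf stage, + 0.25% v/v NIS, bottom-watered. Acetone, 187 l/ha track spray, 15–1000 g ai/ha. 0–100 injury score, day 14.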

[2] = test system: johnsongrass (Sorghum halepense, SORHA); assay: as above; conditions: for pest or weed control at 63 g/ha / pest or weed control at 250 g/ha: Sorghum halepense, pre-emergence, 336 h, read-out: Pre-emerge Herbicidal Activity SORHA; for Pre-emerge Herbicidal Activity SORHA (phytotoxicity rating, scale 0-100): rated 14 days after application, 0 = no damage, 100 = complete death
Summary of the method: as §1

[3] = test system: barnyardgrass (Echinochloa crus-galli, ECHCG); assay: as above; conditions: for pest or weed control at 63 g/ha / pest or weed control at 250 g/ha: Echinochloa crus-galli, pre-emergence, 336 h, read-out: Pre-emerge Herbicidal Activity ECHCG; for Pre-emerge Herbicidal Activity ECHCG (phytotoxicity rating, scale 0-100): rated 14 days after application, 0 = no damage, 100 = complete death
Summary of the method: as §1

[4] = test system: common ragweed (Ambrosia artemisizfolia L., AMBEL); assay: as above; conditions: for Pre-emerge Herbicidal Activity AMBEL (phytotoxicity rating, scale 0-100): rated 14 days after application, 0 = no damage, 100 = complete death
Summary of the method: as §1

[5] = test system: large crabgrass (Digitaria sanguinalis, DIGSA); assay: as above; conditions: for pest or weed control at 63 g/ha / pest or weed control at 250 g/ha: Digitaria sanguinalis, pre-emergence, 336 h, read-out: Pre-emerge Herbicidal Activity DIGSA; for Pre-emerge Herbicidal Activity DIGSA (phytotoxicity rating, scale 0-100): rated 14 days after application, 0 = no damage, 100 = complete death
Summary of the method: as §1

[6] = test system: lambsquarters (Chenopodium album, CHEAL); assay: as above; conditions: for pest or weed control at 63 g/ha / pest or weed control at 250 g/ha: Chenopodium album, pre-emergence, 336 h, read-out: Pre-emerge Herbicidal Activity CHEAL; for Pre-emerge Herbicidal Activity CHEAL (phytotoxicity rating, scale 0-100): rated 14 days after application, 0 = no damage, 100 = complete death
Summary of the method: as §1

[7] = test system: green foxtail (Setaria viridis, SETVI); assay: as above; conditions: for pest or weed control at 63 g/ha / pest or weed control at 250 g/ha: Setaria viridis, pre-emergence, 336 h, read-out: Pre-emerge Herbicidal Activity SETVI; for Pre-emerge Herbicidal Activity SETVI (phytotoxicity rating, scale 0-100): rated 14 days after application, 0 = no damage, 100 = complete death
Summary of the method: as §1

[8] = test system: ivyleaf morningglory (Ipomoea hederacea, IPOHE); assay: as above; conditions: for pest or weed control at 63 g/ha / pest or weed control at 250 g/ha: Ipomoea, pre-emergence, 336 h, read-out: Pre-emerge Herbicidal Activity IPOHE; for Pre-emerge Herbicidal Activity IPOHE (phytotoxicity rating, scale 0-100): rated 14 days after application, 0 = no damage, 100 = complete death
Summary of the method: as §1

[9] = test system: common ragweed (Ambrosia artemisizfolia L., AMBEL); assay: Post-emerge test, greenhouse herbicide activity screening
Summary of the method: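 Applied at 15–1000 g ai/ha from acetone in 187 l/ha spray volume. Post-emergence applications included 0.25% v/v non-ionic surfactant and reached plants sown 8–21 days before. Pre-emergence applications were incorporated by surface watering. Efficacy or crop damage was rated on a 0–100 scale after 14 days.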

[10] = 63 g ai/ha, phytotoxicity rating 0-100, 14 days after application
[11] = 250 g ai/ha, phytotoxicity rating 0-100, 14 days after application
[12] = post-emerge, 63 g ai/ha, phytotoxicity rating 0-100 at 14 days after application
[13] = post-emerge, 250 g ai/ha, phytotoxicity rating 0-100 at 14 days after application
[14] = pre-emerge, rate 63 g ai/ha, phytotoxicity rating 0-100 at 14 days after application
[15] = pre-emerge, rate 250 g ai/ha, phytotoxicity rating 0-100 at 14 days after application

COc1c(Cl)cc(F)c(-n2c(=O)cc(C(F)(F)F)n(C)c2=O)c1NC(N)=O [Compound 3-26, 3-(2-aminocarbonylamino-4-chloro-6-fluoro-3-methoxyphenyl)-1-methyl-6-trifluoromethyl-2,4(1H, 3H)-pyrimidinedione]
pest or weed control at 63 g/ha [1, 10]: 75% | pest or weed control at 250 g/ha [1, 11]: 100% | pest or weed control at 63 g/ha [2, 10]: 0% | pest or weed control at 250 g/ha [2, 11]: 50% | pest or weed control at 63 g/ha [3, 10]: 0% | pest or weed control at 250 g/ha [3, 11]: 30% | Pre-emerge Herbicidal Activity AMBEL [4, 10]: 10 | Pre-emerge Herbicidal Activity AMBEL [4, 11]: 90 | pest or weed control at 63 g/ha [5, 10]: 0% | pest or weed control at 250 g/ha [5, 11]: 80% | pest or weed control at 63 g/ha [6, 10]: 80% | pest or weed control at 250 g/ha [6, 11]: 90% | pest or weed control at 63 g/ha [7, 10]: 0% | pest or weed control at 250 g/ha [7, 11]: 85% | pest or weed control at 63 g/ha [8, 10]: 50% | pest or weed control at 250 g/ha [8, 11]: 100%

COc1c(Cl)cc(F)c(-n2c(=O)cc(C(F)(F)F)n(C)c2=O)c1[N+](=O)[O-] [Compound 1-5, 3-(4-chloro-6-fluoro-3-methoxy-2-nitrophenyl)-1-methyl-6-trifluoromethyl-2,4(1H, 3H)-pyrimidinedione]
Post-emerge Herbicidal Activity AMBEL ([9]; 63 g ai/ha, phytotoxicity rating 0-100 (0 no damage, 100 complete death), 14 days after application): 0 | Post-emerge Herbicidal Activity AMBEL ([9]; 250 g ai/ha, phytotoxicity rating 0-100 (0 no damage, 100 complete death), 14 days after application): 30 | Pre-emerge Herbicidal Activity ABUTH (phytotoxicity rating, scale 0-100) ([1]; 63 g ai/ha, pre-emerge): 30 | Pre-emerge Herbicidal Activity ABUTH (phytotoxicity rating, scale 0-100) ([1]; 250 g ai/ha, pre-emerge): 100 | Pre-emerge Herbicidal Activity SORHA (phytotoxicity rating, scale 0-100) ([2]; 63 g ai/ha, pre-emerge): 0 | Pre-emerge Herbicidal Activity SORHA (phytotoxicity rating, scale 0-100) ([2]; 250 g ai/ha, pre-emerge): 20 | Pre-emerge Herbicidal Activity ECHCG (phytotoxicity rating, scale 0-100) ([3]; 63 g ai/ha, pre-emerge): 0 | Pre-emerge Herbicidal Activity ECHCG (phytotoxicity rating, scale 0-100) ([3]; 250 g ai/ha, pre-emerge): 0 | Pre-emerge Herbicidal Activity AMBEL (phytotoxicity rating, scale 0-100) ([4]; 63 g ai/ha, pre-emerge): 0 | Pre-emerge Herbicidal Activity AMBEL (phytotoxicity rating, scale 0-100) ([4]; 250 g ai/ha, pre-emerge): 20 | Pre-emerge Herbicidal Activity DIGSA (phytotoxicity rating, scale 0-100) ([5]; 63 g ai/ha, pre-emerge): 0 | Pre-emerge Herbicidal Activity DIGSA (phytotoxicity rating, scale 0-100) ([5]; 250 g ai/ha, pre-emerge): 70 | Pre-emerge Herbicidal Activity CHEAL (phytotoxicity rating, scale 0-100) ([6]; 63 g ai/ha, pre-emerge): 60 | Pre-emerge Herbicidal Activity CHEAL (phytotoxicity rating, scale 0-100) ([6]; 250 g ai/ha, pre-emerge): 100 | Pre-emerge Herbicidal Activity SETVI (phytotoxicity rating, scale 0-100) ([7]; 63 g ai/ha, pre-emerge): 0 | Pre-emerge Herbicidal Activity SETVI (phytotoxicity rating, scale 0-100) ([7]; 250 g ai/ha, pre-emerge): 90 | Pre-emerge Herbicidal Activity IPOHE (phytotoxicity rating, scale 0-100) ([8]; 63 g ai/ha, pre-emerge): 0 | Pre-emerge Herbicidal Activity IPOHE (phytotoxicity rating, scale 0-100) ([8]; 250 g ai/ha, pre-emerge): 10

COc1c(Cl)cc(F)c(-c2nn(C)c(C(F)(F)F)c2Cl)c1N [Compound 7-2, 4-chloro-3-(2-amino-4-chloro-6-fluoro3-metoxyphenyl)-1-methyl-5-trifluoromethyl-1H-pyrazole]
Post-emerge Herbicidal Activity AMBEL [9, 12]: 0 | Post-emerge Herbicidal Activity AMBEL [9, 13]: 10 | pest or weed control at 63 g/ha [1, 14]: 95% | pest or weed control at 250 g/ha [1, 15]: 100% | pest or weed control at 63 g/ha [2, 14]: 95% | pest or weed control at 250 g/ha [2, 15]: 100% | pest or weed control at 63 g/ha [3, 14]: 70% | pest or weed control at 250 g/ha [3, 15]: 100% | Pre-emerge Herbicidal Activity AMBEL [4, 14]: 80 | Pre-emerge Herbicidal Activity AMBEL [4, 15]: 100 | pest or weed control at 63 g/ha [5, 14]: 100% | pest or weed control at 250 g/ha [5, 15]: 100% | pest or weed control at 63 g/ha [6, 14]: 100% | pest or weed control at 250 g/ha [6, 15]: 100% | pest or weed control at 63 g/ha [7, 14]: 95% | pest or weed control at 250 g/ha [7, 15]: 100% | pest or weed control at 63 g/ha [8, 14]: 60% | pest or weed control at 250 g/ha [8, 15]: 80%

CC(C)Oc1c(Cl)cc(F)c(N2C(=O)C3=C(CCCC3)C2=O)c1N [Compound 8-4, N-(2-amino-4-chloro-6-fluoro-3-isopropyloxyphenyl)tetrahydrophthalimide]
pest or weed control at 63 g/ha [1, 14]: 0% | pest or weed control at 250 g/ha [1, 15]: 90% | pest or weed control at 63 g/ha [2, 14]: 0% | pest or weed control at 250 g/ha [2, 15]: 20% | pest or weed control at 63 g/ha [3, 14]: 0% | pest or weed control at 250 g/ha [3, 15]: 0% | pest or weed control at 63 g/ha [5, 14]: 20% | pest or weed control at 250 g/ha [5, 15]: 20% | pest or weed control at 63 g/ha [6, 14]: 80% | pest or weed control at 250 g/ha [6, 15]: 99% | pest or weed control at 63 g/ha [7, 14]: 30% | pest or weed control at 250 g/ha [7, 15]: 70% | pest or weed control at 63 g/ha [8, 14]: 0% | pest or weed control at 250 g/ha [8, 15]: 0%

Nc1c(O)c(Cl)cc(F)c1N1C(=O)C2=C(CCCC2)C1=O [Compound 8-2, 2-amino-6-chloro-4-fluoro-3-tetrahydrophthalimido)phenol]
Post-emerge Herbicidal Activity AMBEL [9, 12]: 30 | Post-emerge Herbicidal Activity AMBEL [9, 13]: 90 | pest or weed control at 63 g/ha [1, 14]: 80% | pest or weed control at 250 g/ha [1, 15]: 100% | pest or weed control at 63 g/ha [2, 14]: 0% | pest or weed control at 250 g/ha [2, 15]: 20% | pest or weed control at 63 g/ha [3, 14]: 0% | pest or weed control at 250 g/ha [3, 15]: 40% | pest or weed control at 63 g/ha [5, 14]: 0% | pest or weed control at 250 g/ha [5, 15]: 70% | pest or weed control at 63 g/ha [6, 14]: 80% | pest or weed control at 250 g/ha [6, 15]: 100% | pest or weed control at 63 g/ha [7, 14]: 20% | pest or weed control at 250 g/ha [7, 15]: 100% | pest or weed control at 63 g/ha [8, 14]: 0% | pest or weed control at 250 g/ha [8, 15]: 0%
